According to ChEMBL document CHEMBL1126525, “Synthesis and DNA cleaving properties of hybrid molecules containing propargylic sulfones and minor groove binding lexitropsins” (Bioorg Med Chem Lett, 1993):

System: Nucleic Acid
Test: Compound was evaluated for its binding affinity constant to calf thymus DNA
Assay type: nucleic-acid assay
Settings: Bos taurus

| SMILES | Binding affinity [M⁻¹] |
| --- | --- |
| COC(=O)c1cc(NC(=O)c2cc(NC(=O)c3cc(NC(=O)c4cccc5c(S(=O)(=O)CC#CCO)cccc45)cn3C)cn2C)cn1C | 720000 |
| O=S(=O)(CC#CCO)c1cccc2ccccc12 | 46000 |
| COC(=O)c1cc(NC(=O)c2cc(NC(=O)c3cc(NC(=O)c4cc(S(=O)(=O)CC#CCO)cc5ccccc45)cn3C)cn2C)cn1C | 89000 |
